The subject of assay [1] is human smooth muscle cell migration. The assay can be described thus: Human smooth muscle cell migration toward plasma from MI patients (modified Boyden chamber). Type of assay: cell-based. The conditions noted are these: for synergy with antioxidant on the inhibition of human smooth muscle cell migration: garlic ingredients 1 μM each plus ascorbic acid 3 μM, FIG. 5; for effect on human smooth muscle cell migration toward plasma from MI patients: antioxidants alone, 3 μM each, FIG. 3.
Description: Graph showing the modified Boyden chamber used to examine the effect of garlic ingredients, antioxidants, and combinations on human smooth muscle cell migration toward plasma obtained from acute myocardial infarction patients (MI) during balloon angioplasty and stent coronary intervention.
The procedure is as follow: 20 μl plasma was placed in the bottom chamber (A), smooth muscle suspension 1×10^6 cells in 5 μl with or without the various garlic active ingredients, antioxidants or combinations were placed in the top chamber (B). The chamber B was fitted over chamber A, covered and placed in a CO2 (5%)/O2 (95%) incubator for 22 hours at 37° C. The filter from chamber B was taken out of the chamber and the cells on the top were scraped off using a cell scraper. The filter was placed in formaldehyde, Triton X100, washing buffer solution, stained with Rhodamine phloyden, and then a washing solution as shown in station C (front view) and D (side view). The filter was then dried and put in a fluorescence plate reader to read the degree of fluorescence.

The next assay concerns HUVEC. The assay can be described thus: FGF2-induced endothelial cell tube formation on Matrigel. Type of assay: cell-based, human. As for the experimental part:
For the different in vitro assays human smooth muscle cells and human umbilical vein endothelial (HUVEC) cells were obtained from (Clonetics, Walkersville, Md.). Endothelial cells (EC) were grown to 80-90% confluence in Endothelial Growth Medium (EGM) containing hEGF 10 ng/ml, hydrocortisone […], gentamicin […], amphotercin-B 50 ug/ml, Blood Brain Extract 0.012 mg/ml and 2% Fetal Bovine Serum equilibrated with 95% air/5% CO2 at 37° C. HUVEC cells will be serially passed in Endothelial Growth in cell culture flasks coated with gelatin 0.2%, (Sigma, St. Louis, Mo.). Confluent cultures of endothelial cells between the 3rd and 6th passages were washes with HBSS and harvested using 0.025% trypsin/0.01% EDTA and counted by hemacytometer. […]
Microscopic Analysis of Endothetial Cell Tube Formation: […] Digital images of microtiter well sections were collected using a 3-CCD color video camera system ([…], New York, N.Y.) and analyzed with the Image-Pro Plus software (Media Cybernetics, Silver Spring, Md.). The area and major axis length of stained cells having a tubular morphology on the Matrigel surface counted from 5 images/well. Area data is expressed in units of 10^4 square microns and length data is expressed as length/area in units of mm/mm^2. […]

Assay [2] relates to bFGF-induced angiogenesis on the CAM. Nature of the assay: FGF2 (bFGF)-induced angiogenesis in the chick chorioallantoic membrane (CAM) model. Type of assay: in vivo. As for the experimental part:
In Vivo Angiogenesis: Ten-day old chick embryos were purchased from Spafas, Inc. (Preston, Conn.) and were incubated at 37° with 55% humidity generally referred to as chick chorioallantoic membrane (CAM) model. A small hole was punctured in the shell concealing the air sac with a hypodermic needle. A second hole was punctured in the shell on the broadside of the egg directly over an avascular portion of the embryonic membrane, as observed during candling. A false air sac was created beneath the second hole by the application of negative pressure to the first hole, which caused the CAM to separate form the shell. A window, approximately 1.0 cm2, was cut the in the shell over the dropped CAM with the use of a small crafts grinding wheel (Dermal, Division of Emerson Electric Company (Racine, Wis.) which allowed direct access to the underlying CAM.
Filter disks of #1 filter paper (Whatman International, United Kingdom) were soaked in 3 mg/ml cortisone acetate (Sigma, St. Louis, Mo.) in a solution of 95% ethanol and water and subsequently air dried under sterile conditions. […] Blood vessel branch points in the 5 mm filter disk area were counted at 30× magnification in a blinded fashion as a size-independent quantitative indicator of vascular sprouting in response to growth factors. As angiogenesis is characterized by the sprouting of new vessels in response to growth factors, counting blood vessel branch points is a useful quantitative means of obtaining an angiogenic index. […] Data was evaluated in terms of average number of blood vessel branch points per treatment group±standard deviation of measurement. […]
Microscopic Analysis of CAM Sections: CAM tissue directly beneath FGF2-saturated filter disk was resected from embryos treated 48 hours prior with compounds or controls. […] Digital images of CAM sections adjacent to filters were collected using a 3-CCD color video camera system (Toshiba America, New York, N.Y.) and analyzed with the Image-Pro Plus software (Media Cybernetics, Silver Spring, Md.). […]

The subject of assay [3] is tumor growth in the CAM model. Nature of the assay: Chick chorioallantoic membrane tumor assay model. The note with it: different types of tumor; by inhibiting tumor-induced angiogenesis. The class given is in vivo. Here is the method:
In addition to the angiogenesis assays described above where the effect of the garlic sulfur containing ingredient Alliin±antioxidants were evaluated, the anti-tumor efficacy for Alliin+antioxidants were evaluated as well. Ten million tumor cells were placed on the surface of each CAM and were cultured for one week. The resulting tumors were excised and cut into 50 mg fragments. Cheresh et al., Cell 58: 945-953 (1989), Brooks et al., J. Cell Biol., 122:1351 (1993) and as described herein. These fragments were placed on additional CAMs and treated topically the following day with 0.11 mg in 25 μl of Alliin with and without anti-oxidant or saline. Forty eight hours later, CAMs were excised from the egg and the number of blood vessels entering the tumors were counted (as vessel branch points).
Data presented as mean blood vessel number per treatment group (+/− standard error of measurement). Each treatment group incorporated at least ten tumors per experiment. Representative tumors were photographed at 10× magnification. Tumors were then excised from the egg and tumor weights were determined for each tumor. Data presented as mean tumor weight per treatment group (+/− standard error of measurement). Statistical analyses were performed using Student's t-test.

Alliin: the “synergy with antioxidant on the inhibition of human smooth muscle cell migration” value in assay [1] was “synergy”. Besides, in assay [1] (qualitative, micrographs treated vs untreated, FIG. 4), the “inhibition of smooth muscle cell migration toward plasma from MI subjects” value was “Inhibition of smooth muscle cell migration”. Further, the “efficacy on FGF2-induced EC tube formation” value in the assay on HUVEC (Alliin ± antioxidants, FIG. 10, n=6) is given as “Concentration-dependent efficacy”. Besides, the “inhibition of cytokine stimulated tube formation” value in the assay on HUVEC (HUVEC, FGF2 50 ng/ml, alliin 0-0.011 mg) is given as 90-100%. The “efficacy on FGF2-induced angiogenesis in the CAM model” value in assay [2] (Alliin ± antioxidants, FIG. 11B, n=6) is “Dose-dependent efficacy”. Moreover, the “blockade of bFGF-induced angiogenesis on the CAM” value in assay [2] (applied to filter disk or injected intravenously 24 h after bFGF) is on record as “at least 92+/−10%”. The “inhibition of growth of new blood vessels induced by bFGF (vessel branch points)” value in assay [2] (applied to the growth factor saturated filter 24 h after bFGF, CAMs excised after three days) is reported as 92 +/−10%. The “tumor growth in the CAM model” value in assay [3] is recorded as “inhibited”.
Turning to `C=CCSSCC=C` [allyl disulfide], the “synergy with antioxidant on the inhibition of human smooth muscle cell migration” value in assay [1] was “synergy”.
ethylene diphenyl urea [EDU]: the “effect on human smooth muscle cell migration toward plasma from MI patients” value in assay [1] is listed as “lack of effect”.
On the same count and under the same terms, the value for `O=C1O[C@H]([C@@H](O)CO)C(O)=C1O` [ascorbic acid] was “lack of effect”.

These data come from patent US6866864B2, “Compositions and methods of use in the treatment of angiogenesis and vascular-related disorders” (priority 2000, dated 2005).
